Patent US20030032580A1, “Use of agonists or antagonists of the 5-HT7 receptor to treat disorders of the bladder” (Synaptic Pharmaceutical Corporation, priority 1999, published 2003)

Columns and labels:
[1] = target: T1, 5-HT2B receptor (second phase of the concentration-effect curve to 5-CT in the rat bladder) (Rattus norvegicus, UniProt P30994); test: Electrically stimulated rat bladder strips: second (low potency) phase of the concentration-effect curve to 5-CT; format: cell-based
T1 construct: from tissue; host or cells: rat urinary bladder detrusor strips

human 5-HT7 receptor = target: T2, human 5-HT7 receptor (Homo sapiens, UniProt P34969); test: Radioligand binding at cloned 5-HT7 receptor, this study ([3H]serotonin competition); conditions: reference: this study, read-out: pK1 (converted)
T2 construct: host or cells: LM(tk-) mouse fibroblasts, clone L-5HT-4B
Method: The binding of a test compound to a receptor of interest was generally evaluated by competitive binding assays using membrane preparations derived from cells which expressed the receptor. First, conditions were determined which allowed measurement of the specific binding of a compound known to bind to the receptor. Then, the binding of the known compound to the receptor in membrane preparations was evaluated in the presence of several different concentrations of the test compound.
Human Serotonin Receptors. 5-HT1Dα, 5-HT1Dβ, 5-HT1E, 5-HT1F, and 5-HT7 Receptors: The cell lysates of LM(tk-) clonal cell line stably transfected with the genes encoding each of these 5-HT receptor-subtypes were prepared as described above. The cell line for the 5-HT1Dα receptor, designated as Ltk-8-30-84, was deposited on Apr. 17, 1990, and accorded ATCC Accession No. CRL 10421. The cell for the 5-HT1Dβ receptor, designated as Ltk-11, was deposited on Apr. 17, 1990, and accorded ATCC Accession No. CRL 10422. The cell line for the […] receptor, designated 5-HT1E-7, was deposited on Nov. 6, 1991, and accorded ATCC Accession No. CRL 10913. The cell line for the 5-HT1F receptor, designated L-5-HT1F, was deposited on Dec. 27, 1991, and accorded ATCC Accession No. ATCC 10957. […] Nonspecific binding was determined in the presence of 10 μM serotonin. […]

[2] = target: cloned rat 5-HT2B receptor (Rattus norvegicus, UniProt P30994); conditions: cited from earlier work
[3] = target: T3, 5-HT7 receptor (first phase of the concentration-effect curve to 5-CT in the rat bladder) (Rattus norvegicus, UniProt P32305); test: Electrically stimulated rat bladder strips: first (high potency) phase of the concentration-effect curve to 5-CT; format: cell-based; conditions: bladder pKB versus published value
T3 construct: from tissue; host or cells: rat urinary bladder detrusor strips

5-HT1E = 5-HT1E (Homo sapiens, UniProt P28566); conditions: Adham et al., 1993; cited from earlier work
Chain of 5-HT1E (P28566 whole entry): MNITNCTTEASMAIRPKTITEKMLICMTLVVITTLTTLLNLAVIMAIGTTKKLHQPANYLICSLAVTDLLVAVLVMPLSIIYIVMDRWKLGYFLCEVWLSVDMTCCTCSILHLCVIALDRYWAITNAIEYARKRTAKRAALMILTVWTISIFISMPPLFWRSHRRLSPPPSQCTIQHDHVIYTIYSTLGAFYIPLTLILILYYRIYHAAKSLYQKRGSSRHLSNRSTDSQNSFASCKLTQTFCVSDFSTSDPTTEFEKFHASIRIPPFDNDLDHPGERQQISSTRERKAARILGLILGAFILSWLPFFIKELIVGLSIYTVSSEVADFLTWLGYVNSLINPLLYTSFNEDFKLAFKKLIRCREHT

Chain of cloned rat 5-HT2B receptor (P30994 whole entry): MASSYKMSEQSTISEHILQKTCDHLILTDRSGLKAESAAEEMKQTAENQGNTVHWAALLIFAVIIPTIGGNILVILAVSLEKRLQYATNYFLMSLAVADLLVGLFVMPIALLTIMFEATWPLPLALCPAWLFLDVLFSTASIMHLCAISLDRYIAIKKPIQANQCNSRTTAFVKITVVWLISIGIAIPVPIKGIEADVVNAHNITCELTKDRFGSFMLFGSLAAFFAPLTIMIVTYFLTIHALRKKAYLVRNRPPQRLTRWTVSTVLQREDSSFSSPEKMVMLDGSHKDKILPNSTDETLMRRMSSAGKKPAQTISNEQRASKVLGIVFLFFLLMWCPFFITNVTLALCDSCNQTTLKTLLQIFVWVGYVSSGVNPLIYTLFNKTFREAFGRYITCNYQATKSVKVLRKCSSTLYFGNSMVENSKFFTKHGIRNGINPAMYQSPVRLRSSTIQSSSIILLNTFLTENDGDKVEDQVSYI
T1 sequence (P30994 whole entry): as above
T2 sequence (P34969 1-445 isoform P34969-2): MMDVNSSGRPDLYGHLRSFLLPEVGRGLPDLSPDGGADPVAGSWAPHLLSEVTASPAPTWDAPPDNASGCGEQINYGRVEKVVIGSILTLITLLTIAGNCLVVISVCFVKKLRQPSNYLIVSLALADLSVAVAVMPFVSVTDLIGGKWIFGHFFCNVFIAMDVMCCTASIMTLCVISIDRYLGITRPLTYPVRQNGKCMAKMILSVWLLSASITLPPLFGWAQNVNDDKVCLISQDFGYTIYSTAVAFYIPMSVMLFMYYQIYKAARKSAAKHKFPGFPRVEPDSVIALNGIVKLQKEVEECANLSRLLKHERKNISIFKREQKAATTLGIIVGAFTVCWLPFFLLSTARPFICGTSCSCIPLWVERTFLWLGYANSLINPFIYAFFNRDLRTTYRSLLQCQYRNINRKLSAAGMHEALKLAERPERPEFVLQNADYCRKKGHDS
T3 sequence (P32305 whole entry): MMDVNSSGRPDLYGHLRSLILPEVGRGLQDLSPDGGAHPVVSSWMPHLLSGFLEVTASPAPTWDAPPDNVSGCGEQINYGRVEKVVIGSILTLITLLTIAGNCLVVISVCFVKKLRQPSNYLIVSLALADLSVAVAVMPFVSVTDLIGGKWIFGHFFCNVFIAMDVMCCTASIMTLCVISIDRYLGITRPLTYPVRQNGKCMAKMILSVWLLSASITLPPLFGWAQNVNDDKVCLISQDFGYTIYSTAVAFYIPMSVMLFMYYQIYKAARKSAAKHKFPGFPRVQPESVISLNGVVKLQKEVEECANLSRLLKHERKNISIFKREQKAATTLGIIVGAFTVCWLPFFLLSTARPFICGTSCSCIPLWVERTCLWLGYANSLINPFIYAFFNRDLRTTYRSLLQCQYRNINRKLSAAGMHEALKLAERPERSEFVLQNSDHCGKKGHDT

second-phase affinity greater than affinity for 5-HT1B, 5-HT1E, 5-HT2A and 5-HT2C subtypes ([1]; bladder pKB versus published values): at least 10 fold
Kb ([1]; inhibition of the second phase of the concentration-effect curve to 5-CT in the rat bladder, read-out: pKB (converted)): 15.8 nM
Ki (human 5-HT7 receptor): 2510 nM
first-phase affinity lower than affinity for the 5-HT2B receptor subtype [3]: more than 10 fold
Structure (SMILES): COC(=O)[C@H]1[C@H]2C[C@H]3c4[nH]c5ccccc5c4CCN3C[C@H]2CC[C@@H]1O [rauwolscine]
pKB, 5-HT2B ([2]; Wainscott et al., 1993): 7.5
pK1 ([2]; cloned rat 5-HT2B receptor, reference 1 (Wainscott et al., 1993)): 7.5-7.6
pKB, 5-HT1E (5-HT1E): 5.5
